From patent US6403600B1, “Methoximinophenylacetic acid amides” (Bayer Aktiengesellschaft, priority 1998, dated 2002) come the findings set out here.

For orientation: logP means a log measure of how a compound divides between an organic and an aqueous phase.

This data set in a line: logP determination by HPLC (EEC-Directive 79/831 Annex V. A8). The class given is physicochemical. To be noted: gradient method, acetonitrile/0.1% aqueous phosphoric acid.
In turn, `CON=C(C(=O)N(C)SC(C)(C)C)c1ccccc1COc1ccccc1C` [Example 55] yielded a logP of 5.05.
The compound `CON=C(C(=O)N(C)SC(F)(F)F)c1ccccc1COc1ccccc1C` [Example 56] registered a logP of 4.93.
The same measure for `CON=C(C(=O)N(C)SC(C)(F)F)c1ccccc1COc1ccccc1C` [Example 57]: 4.62; for `CCSCc1ccccc1OCc1ccccc1C(=NOC)C(=O)N(C)SC(F)(Cl)Cl` [Example 58]: 5.59; for `CON=C(C(=O)N(C)C(=O)N(C)SC(F)(F)F)c1ccccc1COc1ccccc1C` [Example 59]: 4.75.
In the case of `CON=C(C(=O)N(SC(F)(Cl)Cl)C1CC1)c1ccccc1COc1ccccc1C` [Example 60] it was 5.58; in that of `CON=C(C(=O)N(SC(F)(F)F)C1CC1)c1ccccc1COc1ccccc1C` [Example 61], 5.17; in that of `CCN(SC(F)(F)F)C(=O)C(=NOC)c1ccccc1COc1ccccc1C` [Example 62], 5.3.
For `CON=C(C(=O)N(C)SC(F)(Cl)Cl)c1ccccc1COc1cccc(-c2ccccc2)c1` [Example 65], the logP is given as 5.77.
`CON=C(C(=O)N(C)SC(F)(F)F)c1ccccc1COc1cccc(-c2ccccc2)c1` [Example 66] gave a logP of 5.36.
In the case of `CON=C(C(=O)N(C)SC(F)(Cl)Cl)c1ccccc1COc1cc(C)ccc1C` [Example 67] it was 5.68; in that of `CON=C(C(=O)N(C)SC(F)(F)F)c1ccccc1COc1cc(C)ccc1C` [Example 68], 5.25; in that of `CON=C(C(=O)N(C)SC(F)(Cl)Cl)c1ccccc1COc1cc(F)ccc1F` [Example 69], 4.86.
Turning to `CON=C(C(=O)N(C)SC(F)(F)F)c1ccccc1COc1cc(F)ccc1F` [Example 70], the logP was 4.48.
In the case of `CON=C(C(=O)N(C)SC)c1ccccc1CON=C(C)c1cccc(C(F)(F)F)c1` [Example 71] it was 4.73; in that of `CON=C(C(=O)N(C)Sc1ccccc1)c1ccccc1CON=C(C)c1cccc(C(F)(F)F)c1` [Example 72], 5.48.
The compound `CCSN(C)C(=O)C(=NOC)c1ccccc1CON=C(C)c1cccc(C(F)(F)F)c1` [Example 73] yielded a logP of 5.02.
In the case of `CON=C(C(=O)N(C)Sc1cccc(C(F)(F)F)c1)c1ccccc1CON=C(C)c1cccc(C(F)(F)F)c1` [Example 74] it was 5.84.
In the case of `CON=C(C(=O)N(C)SC(F)(F)F)c1ccccc1CON=C(C)c1cccc(C(F)(F)F)c1` [Example 75] it was 5.36; in that of `CON=C(C(=O)N(C)C(=O)N(C)SC(F)(F)F)c1ccccc1CON=C(C)c1cccc(C(F)(F)F)c1` [Example 76], 5.22.
The same measure for `CON=C(C(=O)N(C)SC(F)(Cl)Cl)c1ccccc1CON=C(C)c1cccc(Cl)c1` [Example 77]: 5.79.
For the compound `CON=C(C(=O)N(C)SC(F)(F)F)c1ccccc1CON=C(C)c1cccc(Cl)c1` [Example 78], the logP was determined as 5.39.
In the case of `CON=C(C(=O)N(C)SC(F)(Cl)Cl)c1ccccc1CON=C(C)c1ccc(OC)c(OC)c1` [Example 79] it was 4.7; in that of `CON=C(C(=O)N(C)SC(F)(F)F)c1ccccc1CON=C(C)c1ccc(OC)c(OC)c1` [Example 80], 4.36.
The same measure for `CON=C(C(=O)N(C)SC(=O)OC)c1ccccc1CON=C(C)c1cccc(Cl)c1` [Example 81]: 4.71.
In turn, `CON=C(C(=O)N(C)SC(=O)OC)c1ccccc1CON=C(C)c1ccc(OC)c(OC)c1` [Example 82] returned a logP of 3.7.
The same measure for `CON=C(C(=O)N(C)SC(F)(Cl)Cl)c1ccccc1CON=C(C)c1cccc(F)c1` [Example 83]: 5.36.
`CON=C(C(=O)N(C)SC(F)(F)F)c1ccccc1CON=C(C)c1cccc(F)c1` [Example 84] had a logP of 4.97.
The compound `CON=C(C(=O)N(C)SC(F)(Cl)Cl)c1ccccc1Oc1ncnc(Oc2cccc(Cl)c2C)c1F` [Example 86] showed a logP of 5.59.
